Data published in patent US8039501B2, “Synephrine derivatives useful as anti-inflammatory agents” (Universiteit Gent, priority 2005, dated 2011).

What was measured:
[1] = system: FLS cells (fibroblast-like synoviocytes); assay: Q-PCR/ELISA gene expression in primary FLS of RA patients; type: cell-based, human
Method: CpdA was synthesized as described previously. […] They were sacrificed and livers were isolated. […] Gene expression of HPRT was used for normalization. […] Gene expression of HPRT was used for normalization. […] Gene expression of HPRT was used for normalization. Statistical significance was determined by one way anova. […] Gene expression of HPRT was used for normalization. […] Gene expression of HPRT was used for normalization. Statistical significance was determined by one way anova. […] Statistical significance was determined with a Kruskal-Wallis test.
Western blot analysis was performed on total protein extracts with an anti-GR(H-300) antibody. The detection of ERK was used as a loading control. After 8 days of treatment liver samples were taken from the PBS, DEX (20 μg) or CpdA (300 μg) treated DBA/1 mice (FIG. 22B). Q-PCR was performed for the detection of GR in the different samples. Statistical significance was determined with a Mann-Whitney Test. FLS were pre-treated with solvent, DEX (1 μM) or CpdA (10 μM) for 1 hour (set-up 1) or 24 hours (set-up 2), as indicated in the figures. Afterwards, TNF (2000 units/ml) was added for 6 h. Western blot analysis was performed on total extracts with an anti-GR(H-300) antibody (FIG. 19A). Detection of ERK was used as a loading control. The Human Inflammation Array was incubated with medium of cultured FLS and developed following the manufacturer's instruction (FIG. 19B). Total RNA was isolated from the induced FLS and subjected to reverse transcriptase PCR. […] Gene expression of HPRT was used for normalization. Statistical significance was determined by one way anova. […] Since it has been proposed that the cellular sensitivity to GC is directly proportional to the receptor concentration, the mechanism of homologous down-regulation appears to drastically affect the cellular sensitivity of primary human RA-FLS to GC therapy. […] Such an effect can not be observed with CpdA. […] Therefore, it is not surprising that some patients who develop resistance to the therapeutic effects of GC, still display the unwanted effects associated with prolonged GC treatment. […] All publications and patent applications mentioned in this specification are herein incorporated by reference to the same extent as if each independent publication or patent application was specifically and individually indicated to be incorporated by reference. Other embodiments are within the scope of the claims.

AP1 = assay: EMSA of AP1 DNA binding in MCF7 cells; type: cell-based, human; details: FIG. 7B
Method: For the EMSA, the MCF7 cells were pre-treated with varying concentrations of CpdA (10, 1, 0.1, 0.01, and 0.001 μM) and DEX (0.1 μM) for two hours and subsequently TNF-induced or non-TNF-induced during 30 min at 2000 IU/ml. After the induction period, nuclear extracts were examined in EMSA assays. Cells were washed with ice-cold PBS, scraped off, and pelleted in 15 ml of PBS by centrifugation for 5 min at 2600 rpm at 4° C. and lysed for 30 minutes at 4° C. in Totex buffer (20 mM HEPES (pH 7.9), 350 mM NaCl, 1 mM MgCl, 0.5 mM EDTA, 0.1 mM EGTA, 5 mM DTT, 20% glycerol, 1% NP-40, 0.1% PMSF, 1% aprotinin (4 mg/ml leupeptin). Supernatants from a 4000-rpm 10-min centrifugation were collected, aliquoted and stored at −20° C. until further use. Radiolabelled oligonucleotides that correspond to a consensus κB DNA-binding element of the IL-6 promoter, and of activating protein 1 (AP-1) DNA target-were used for appropriate EMSA's. These oligonucleotides of about 25 nucleotides comprise centrally the transcription factor binding motif. […] The samples were analyzed by electrophoresis on 6% native polyacrylamide gels. […] Visualization and quantitation of radioactive signals was carried out by a Phosphorlmager and scanned using a bioimaging analyzer (Personal Molecular Imager® FX Bio-Rad). […]

SMILES: CNCC(Cl)c1ccc(OC(C)=O)cc1.Cl (centres unmarked) [CpdA, 2-(4-acetoxyphenyl)-2-chloro-N-methyl-ethylammonium chloride]
- Repression of TNF-induced MCP-1, IL-8 and IL-6 after prolonged treatment (set-up 2) ([1]; 10 μM pre-treated 24 hours, TNF 2000 units/ml 6 h, FIG. 19): still able to repress the TNF-induced expression of MCP-1, IL-8 and IL-6
- RANKL/OPG ratio ([1]; 10 μM, 24 hours): does not alter the RANKL/OPG ratio
- Expression of cathepsin K ([1]; 10 μM, 24 hours, FIG. 18): does not stimulate the expression of cathepsin K
- Expression of osteoclast differentiation markers M-CSF and RANKL ([1]; 10 μM, 24 hours, FIG. 18, RANKL solvent versus CpdA p>0.05): does not stimulate the expression
- Expression of OPG ([1]; 10 μM, 24 hours, FIG. 18, solvent versus CpdA p>0.05): does not down-regulate the expression of OPG
- Transactivation function of GR (GRE-driven PCOLCE2 and GS expression) ([1]; 10 μM, FIG. 20): does not evoke the transactivation function of GR
- Expression of pro-inflammatory mediators (anti-inflammatory effect) ([1]; 10 μM, TNF 2000 U/ml 6 hours, FIG. 17): anti-inflammatory effect
- DNA-binding of transcription factor AP1 (EMSA) (AP1): not affected
